Source: patent publication EP1018003B1, “MODULATORS OF DNA CYTOSINE-5 METHYLTRANSFERASE AND METHODS FOR USE THEREOF” (The Regents of the University of California, priority 1997, dated 1999)

Tests used:
[1] = target: T1, DCMTase (Mus musculus, UniProt P13864); experiment: Steady-state kinetic assays (methyl transfer from tritiated AdoMet to DNA); type: biochemical; parameters: key: C, competitive; NC, noncompetitive; UC, uncompetitive inhibition; details: product inhibition
T1 construct: a highly homogeneous, unproteolyzed preparation of DCMTase from mouse erythroleukemia cells (MEL); endogenous in cells; host or cells: mouse erythroleukemia (MEL) cells; endogenous enzyme purified per Xu et al. 1995
Experimental: Single-stranded DNA was heated to 90 °C and quick cooled on ice, prior to initiation of the reaction. Freeze-thawed DNA produced equivalent results. Incubations were at 37 °C for 60 minutes. […] The reaction was stopped after 60 minutes by transferring 20 μL of the reaction onto a DE 81 filter paper that was processed as described (Flynn et al., 1996). The radioactivity above the background, determined from assays without added poly(dI·dC:dI·dC), was converted to initial velocities and expressed as picomoles of methyl groups transferred to poly(dI·dC:dI·dC) per hour and plotted in double reciprocal form. […] Incubations were at 37 °C for 60 minutes. […] The GC-box b concentrations were: diamonds, 0; circles, 0.75 μM; triangles, 1.5 μM; squares, 5.0 μM. Incubations were at 37 °C for 60 minutes. […] Incubations were at 37 °C for 60 minutes. […] Incubations were at 37 °C for 60 minutes. […] The AdoHcy concentrations were: squares, 0; diamonds, 0.75 μM; circles, 1.5 μM; triangles, 3.0 μM; notched squares, 6.0 μM. Incubations were at 37 °C for 60 minutes. […] Incubations were at 37 °C for 60 minutes. […] The AdoHcy concentrations were: squares, 0; diamonds, 15 μM; circles, 30 μM. […] The standard errors associated with fitted parameters and graphical analysis of the experimental data scattered around the calculated best fit lines were also considered in making an assignment.

[2] = substrate: C[S+](CC[C@H](N)C(=O)O)C[C@H]1O[C@@H](n2cnc3c(N)ncnc32)[C@H](O)[C@@H]1O; experiment: purified protein, by the assay type; details: other: true Michaelis constant, equation 2 (sequential mechanism); 20 nM DCMTase; pH 8.0

Nc1ncnc2c1ncn2[C@@H]1O[C@H](CSCC[C@H](N)C(=O)O)[C@@H](O)[C@H]1O [AdoHcy, S-adenosyl-L-homocysteine]
Type of Inhibition ([1]; varied substrate AdoMet, fixed substrate IC): C | Type of Inhibition ([1]; varied substrate IC, fixed substrate AdoMet): NC/UC

B1: DCMTase (Mus musculus) (protein)
chain: MPARTAPARVPALASPAGSLPDHVRRRLKDLERDGLTEKECVREKLNLLHEFLQTEIKSQLCDLETKLHKEELSEEGYLAKVKSLLNKDLSLENGTHTLTQKANGCPANGSRPTWRAEMADSNRSPRSRPKPRGPRRSKSDSDTLSVETSPSSVATRRTTRQTTITAHFTKGPTKRKPKEESEEGNSAESAAEERDQDKKRRVVDTESGAAAAVEKLEEVTAGTQLGPEEPCEQEDDNRSLRRHTRELSLRRKSKEDPDREARPETHLDEDEDGKKDKRSSRPRSQPRDPAAKRRPKEAEPEQVAPETPEDRDEDEREEKRRKTTRKKLESHTVPVQSRSERKAAQSKSVIPKINSPKCPECGQHLDDPNLKYQQHPEDAVDEPQMLTSEKLSIYDSTSTWFDTYEDSPMHRFTSFSVYCSRGHLCPVDTGLIEKNVELYFSGCAKAIHDENPSMEGGINGKNLGPINQWWLSGFDGGEKVLIGFSTAFAEYILMEPSKEYEPIFGLMQEKIYISKIVVEFLQNNPDAVYEDLINKIETTVPPSTINVNRFTEDSLLRHAQFVVSQVESYDEAKDDDETPIFLSPCMRALIHLAGVSLGQRRATRRVMGATKEKDKAPTKATTTKLVYQIFDTFFSEQIEKYDKEDKENAMKRRRCGVCEVCQQPECGKCKACKDMVKFGGTGRSKQACLKRRCPNLAVKEADDDEEADDDVSEMPSPKKLHQGKKKKQNKDRISWLGQPMKIEENRTYYQKVSIDEEMLEVGDCVSVIPDDSSKPLYLARVTALWEDKNGQMMFHAHWFCAGTDTVLGATSDPLELFLVGECENMQLSYIHSKVKVIYKAPSENWAMEGGTDPETTLPGAEDGKTYFFQLWYNQEYARFESPPKTQPTEDNKHKFCLSCIRLAELRQKEMPKVLEQIEEVDGRVYCSSITKNGVVYRLGDSVYLPPEAFTFNIKVASPVKRPKKDPVNETLYPEHYRKYSDYIKGSNLDAPEPYRIGRIKEIHCGKKKGKVNEADIKLRLYKFYRPENTHRSYNGSYHTDINMLYWSDEEAVVNFSDVQGRCTVEYGEDLLESIQDYSQGGPDRFYFLEAYNSKTKNFEDPPNHARSPGNKGKGKGKGKGKGKHQVSEPKEPEAAIKLPKLRTLDVFSGCGGLSEGFHQAGISETLWAIEMWDPAAQAFRLNNPGTTVFTEDCNVLLKLVMAGEVTNSLGQRLPQKGDVEMLCGGPPCQGFSGMNRFNSRTYSKFKNSLVVSFLSYCDYYRPRFFLLENVRNFVSYRRSMVLKLTLRCLVRMGYQCTFGVLQAGQYGVAQTRRRAIILAAAPGEKLPLFPEPLHVFAPRACQLSVVVDDKKFVSNITRLSSGPFRTITVRDTMSDLPEIQNGASNSEIPYNGEPLSWFQRQLRGSHYQPILRDHICKDMSPLVAARMRHIPLFPGSDWRDLPNIQVRLGDGVIAHKLQYTFHDVKNGYSSTGALRGVCSCAEGKACDPESRQFSTLIPWCLPHTGNRHNHWAGLYGRLEWDGFFSTTVTNPEPMGKQGRVLHPEQHRVVSVRECARSQGFPDSYRFFGNILDRHRQVGNAVPPPLAKAIGLEIKLCLLSSARESASAAVKAKEEAATKD
Km [2]: 1.4 ± 0.2 µM
